Our source for the MIC values is US20210261621A1, “Preparation of Dilipid Polymixins and Use Thereof as Antimicrobial Adjuvants” (priority 2018, published 2021).

A word on the MIC: it is the lowest concentration found to suppress growth. A higher MIC goes with a need for much substance.

In experiment [1] the test system is S. maltophilia CAN-ICU 62584. The experiment is classed as cell-based, Stenotrophomonas maltophilia. The note with it: S. maltophilia CAN-ICU 62584. The source says:
(§1) Bacterial strains were either obtained from the American Type Culture Collection (ATCC), Canadian National Intensive Care Unit (CAN-ICU) surveillance study or the Canadian Ward Surveillance (CANWARD) study. Strains from both CAN-ICU and CANWARD are isolates recovered from patients diagnosed with a presumed infectious disease that were admitted in a participating medical center across Canada. Efflux-deficient strain PAO200 (lacking MexAB-OprM efflux system) and PA0750 (lacking MexAB-OprM, MexCD-OprJ, MexEF-OprN, MexJK and MexXY efflux systems, and the outer membrane protein OpmH) were kindly gifted by Dr. Ayush Kumar (University of Manitoba).
(§2) The in vitro antibacterial activity of the compounds studied were assessed by broth microdilution susceptibility testing following CLSI guidelines. Bacterial cultures were grown overnight prior to the assay. The overnight grown cultures were diluted in saline to 0.5 McFarland turbidity, followed by 1:50 dilution in Mueller-Hinton broth (MHB) for inoculation to a final concentration of approximately 5×10^5 colony forming units/mL. Testing was performed on 96-well plates where the tested compounds were 2-fold serially diluted in MHB and incubated with equal volumes of bacterial inoculum at 37° C. for 18 h. […] Wells containing MHB with or without bacterial cells were used as positive or negative control, respectively.

For the next experiment, the system named is E. cloacae 117029. The experiment is classed as cell-based, Enterobacter cloacae. The note with it: E. cloacae 117029.
Excerpt: as §1, §2

For the next experiment, the system named is S. aureus ATCC 29213. The experiment is classed as cell-based, Staphylococcus aureus. The conditions noted are these: S. aureus ATCC 29213.
Excerpt: as §1, §2

A further experiment has as its system MRSA ATCC 33592. It is filed as cell-based, Staphylococcus aureus. The note with it: MRSA ATCC 33592 (methicillin-resistant Staphylococcus aureus).
Excerpt: as §1, §2

A further experiment deals with K. pneumoniae ATCC 13883. The experiment is classed as cell-based, Klebsiella pneumoniae. The conditions noted are these: K. pneumoniae ATCC 13883.
Excerpt: as §1, §2

For the next experiment, the system named is K. pneumoniae 116381. The experiment is classed as cell-based, Klebsiella pneumoniae. The note with it: K. pneumoniae 116381.
Excerpt: as §1, §2

The subject of a further experiment is A. baumannii 92247. It is filed as cell-based, Acinetobacter baumannii. The conditions noted are these: 92247. The protocol: (§3) We then addressed the possibility for the dilipid polymyxins to display enhanced antibacterial activity against colistin-resistant Gram-negative pathogens. […] The extended hydrophobic region of the dilipid polymyxin may provide additional hydrophobic interactions to the outer membrane of colistin-resistant organisms. Eight MDR colistin-resistant Gram-negative bacterial isolates were tested, including two E. coli isolates harboring the mcr-1 plasmid-encoded polymyxin resistance gene. We found no difference between the antibacterial activity of dilipid polymyxins and colistin against colistin-resistant Gram-negative bacteria (Table 3).
as §1, §2

The test system of experiment [2] is E. coli CANWARD-2011 97615. The experiment is classed as cell-based, Escherichia coli. The procedure, abridged: (§4)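 CLSI microdilution, MHB, 18 h at 37° C. against ~5×10^5 CFU/mL inoculum; patient isolates sourced from […] surveillance, reference strain from ATCC.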
The test system of the next experiment is MRSE CAN-ICU 61589. It is filed as cell-based, S. epidermidis. The conditions noted are these: MRSE CAN-ICU 61589 (methicillin-resistant S. epidermidis).
Excerpt: as §1, §2

Experiment [3] relates to P. aeruginosa PA259-96918. The experiment is classed as cell-based, Pseudomonas aeruginosa. The conditions noted are these: P. aeruginosa PA259-96918. The procedure, abridged:
as §4

Another experiment deals with P. aeruginosa PA101885. The experiment is classed as cell-based, Pseudomonas aeruginosa. The note with it: P. aeruginosa PA101885. The method in brief:
as §4

Experiment [4] deals with P. aeruginosa PA262-101856. The experiment is classed as cell-based, Pseudomonas aeruginosa. The note with it: P. aeruginosa PA262-101856. The procedure, abridged: as §4
The test system of experiment [5] is P. aeruginosa PA260-97103. The experiment is classed as cell-based, Pseudomonas aeruginosa. The note with it: P. aeruginosa PA260-97103. The procedure, abridged: as §4
Experiment [6] has as its system P. aeruginosa CAN-ICU 62308. It is filed as cell-based, Pseudomonas aeruginosa. The note with it: P. aeruginosa CAN-ICU 62308. The method in brief:
as §4

The test system of another experiment is P. aeruginosa PA100036. It is filed as cell-based, Pseudomonas aeruginosa. The note with it: P. aeruginosa PA100036. The method in brief: as §4
The test system of another experiment is P. aeruginosa 91433. The experiment is classed as cell-based, Pseudomonas aeruginosa. The conditions noted are these: 91433. On the procedure: as §3, §1, §2
The next experiment concerns P. aeruginosa 114228. The experiment is classed as cell-based, Pseudomonas aeruginosa. The conditions noted are these: 114228. The protocol:
as §3, §1, §2

The next experiment has as its system P. aeruginosa 101243. The experiment is classed as cell-based, Pseudomonas aeruginosa. The note with it: 101243. The protocol:
as §3, §1, §2

Converted amounts (≈) assume the structure as drawn. Positions of bridges follow the written chain, without caps; N, C: chain ends. Non-standard residues stand in square brackets, D forms with d. Residues, ends and D or L forms follow the SMILES beside them. *: point of attachment. Acetyl(1-adamantyl) = O=C(CC12CC3CC(CC(C3)C1)C2)*; Dab = NCC[C@H](N)C(=O)O

With `CC(C)C[C@@H]1NC(=O)[C@@H](Cc2ccccc2)NC(=O)[C@H](CCN)NC(=O)[C@@H](NC(=O)[C@H](CCN)NC(=O)[C@@H](NC(=O)[C@H](CCNC(=O)CC23CC4CC(CC(C4)C2)C3)NC(=O)CC23CC4CC(CC(C4)C2)C3)[C@@H](C)O)CCNC(=O)[C@H]([C@@H](C)O)NC(=O)[C@H](CCN)NC(=O)[C@H](CCN)NC1=O` [Compound 4, Diadamantane Acetic Acid (Di-Adamantyl) Polymyxin] ({Acetyl(1-adamantyl)}-[Dab](Acetyl(1-adamantyl))T[Dab][Dab][Dab][dF]L[Dab][Dab]T; lactam 4-C), the MIC in [1] is 64 µg/mL (≈ 45.2 µM); against E. cloacae 117029 it was 4 µg/mL (≈ 2.83 µM); against S. aureus ATCC 29213 it was 16 µg/mL (≈ 11.3 µM); with MRSA ATCC 33592 it was 32 µg/mL (≈ 22.6 µM); with K. pneumoniae ATCC 13883 it was above 128 µg/mL; against K. pneumoniae 116381, above 128 µg/mL. Besides, the MIC in the experiment on A. baumannii 92247 worked out at 8 µg/mL (≈ 5.65 µM); in experiment [2], 64 µg/mL (≈ 45.2 µM); with MRSE CAN-ICU 61589, 16 µg/mL (≈ 11.3 µM); in experiment [3], 8 µg/mL (≈ 5.65 µM); in the experiment on P. aeruginosa PA101885, 8 µg/mL (≈ 5.65 µM); in experiment [4], 8 µg/mL (≈ 5.65 µM). Further, the MIC was found to be 4 µg/mL (≈ 2.83 µM) in experiment [5]; 16 µg/mL (≈ 11.3 µM) in experiment [6]; 8 µg/mL (≈ 5.65 µM) in the experiment with P. aeruginosa PA100036; 8 µg/mL (≈ 5.65 µM) against P. aeruginosa 91433; 8 µg/mL (≈ 5.65 µM) in the experiment with P. aeruginosa 114228; 64 µg/mL (≈ 45.2 µM) with P. aeruginosa 101243.
